Measured values reported in article PMC5482895, “Structural and biochemical studies of sulphotransferase 18 from Arabidopsis thaliana explain its substrate specificity and reaction mechanism” (Scientific Reports, 2017).
Values belong to the compound of their own block, whether it stands above or below them.

How the values were obtained:
AtSOT18 [1] = target: T1, AtSOT18 (Arabidopsis thaliana, UniProt Q9C9C9); assay: X-ray crystal structure of ternary complex ([…] Å); format: binding
T1 construct: gene SOT18; residues 26–347 in the model
T1 sequence (Q9C9C9 26-347): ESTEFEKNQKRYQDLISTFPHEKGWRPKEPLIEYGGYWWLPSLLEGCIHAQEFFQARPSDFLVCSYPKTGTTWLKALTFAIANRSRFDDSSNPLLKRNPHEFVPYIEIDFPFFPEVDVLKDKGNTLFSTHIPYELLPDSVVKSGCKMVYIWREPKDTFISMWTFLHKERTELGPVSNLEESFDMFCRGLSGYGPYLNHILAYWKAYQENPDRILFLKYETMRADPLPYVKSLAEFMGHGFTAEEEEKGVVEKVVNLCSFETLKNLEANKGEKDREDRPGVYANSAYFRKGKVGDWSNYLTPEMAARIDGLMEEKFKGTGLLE

AtSOT18 [2] = target: T2, AtSOT18 (Arabidopsis thaliana, UniProt Q9C9C9); assay: sulphotransferase activity of purified enzyme, HPLC at […] nm; format: biochemical
T2 construct: gene SOT18
T2 sequence (Q9C9C9 1-350): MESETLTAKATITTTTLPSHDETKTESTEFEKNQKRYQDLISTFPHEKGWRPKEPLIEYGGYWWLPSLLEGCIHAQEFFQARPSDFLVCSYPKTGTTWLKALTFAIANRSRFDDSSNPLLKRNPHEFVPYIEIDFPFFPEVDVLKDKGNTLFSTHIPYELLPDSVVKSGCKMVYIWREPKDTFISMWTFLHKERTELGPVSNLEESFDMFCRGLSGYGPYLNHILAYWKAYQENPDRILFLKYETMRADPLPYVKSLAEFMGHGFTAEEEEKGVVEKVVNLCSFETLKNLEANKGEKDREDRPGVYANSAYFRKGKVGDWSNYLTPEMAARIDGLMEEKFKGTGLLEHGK

AtSOT18 [3] = target: T2, AtSOT18; assay: as above; format: biochemical; remark: listed apart in the source
AtSOT18 [4] = target: T2, AtSOT18; assay: as above; format: biochemical; remark: listed apart in the source
AtSOT18 [5] = target: T1, AtSOT18; assay: X-ray crystal structure ([…] Å), plus competitive inhibition kinetics against PAPS; format: biochemical
AtSOT18 [6] = target: T2, AtSOT18; assay: two-dimensional enzyme kinetic titration (HPLC), non-linear fit; format: biochemical
AtSOT18 [7] = target: T2, AtSOT18; assay: sulphotransferase activity of purified enzyme, HPLC at […] nm; format: biochemical; remark: listed apart in the source

I3M (AtSOT18 [4]): 501 ± 46 pkatal mg^−1
Compound: OC[C@H]1O[C@@H](S/C(Cc2c[nH]c3ccccc23)=N\O)[C@H](O)[C@@H](O)[C@@H]1O [I3M, ds-I3M]

Ki (AtSOT18 [5]): 3 ± 1.7 µM
Compound: Nc1ncnc2c1ncn2[C@@H]1O[C@H](COP(=O)(O)O)[C@@H](OP(=O)(O)O)[C@H]1O [PAP, 3′-phosphoadenosine 5′-phosphate]

Sinigrin (AtSOT18 [7]): 879 ± 410 pkatal mg^−1
Compound: C=CC/C(=N/O)S[C@@H]1O[C@H](CO)[C@@H](O)[C@H](O)[C@H]1O [Sinigrin (ds form), ds-Gl sinigrin]

The remaining lines, values behind:

Compound: C=CCC(=NOS(=O)(=O)O)S[C@@H]1O[C@H](CO)[C@@H](O)[C@H](O)[C@H]1O (stereo in doubt) [sinigrin]
X-ray crystal structure of ternary complex (1.92 Å) (AtSOT18 [1]): together with the product Gl sinigrin (PDB ID: 5MEX) were solved

Compound: CSCCC/C(=N/O)S[C@@H]1O[C@H](CO)[C@@H](O)[C@H](O)[C@H]1O [3MTP, ds-3MTP]
3 MTP (AtSOT18 [2]): 1624 ± 122 pkatal mg^−1

Compound: CSCCCCCCCC/C(=N/O)S[C@@H]1O[C@H](CO)[C@@H](O)[C@H](O)[C@H]1O [8MTO, ds-8MTO]
8MTO (AtSOT18 [3]): 1618 ± 272 pkatal mg^−1

Compound: Nc1ncnc2c1ncn2[C@@H]1O[C@H](COP(=O)(O)OS(=O)(=O)O)[C@@H](OP(=O)(O)O)[C@H]1O [PAPS, 3′-phosphoadenosine 5′-phosphosulphate]
Kd (AtSOT18 [6]): 4.2 ± 2.6 µM
